Measurements reported in PubChem BioAssay (NCI).
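Step 1: Grow cells in 96-well plates. Step 2: Expose to compound for 48 hours at 5 concentrations. Step 3: Interpolate endpoints linearly; if unreached, use highest concentration. Definition used: TGI = concentration required for complete inhibition of growth.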

Columns and labels:
Experiment in all cases: inhibition of tumour cell growth, NCI panel, 48 h
U251 CNS = test system: U251 CNS
CCRF-CEM leukemia = test system: CCRF-CEM leukemia
IGROV1 ovarian = test system: IGROV1 ovarian
MALME-3M melanoma = test system: MALME-3M melanoma
SNB-19 CNS = test system: SNB-19 CNS
SK-OV-3 ovarian = test system: SK-OV-3 ovarian
SF-539 CNS = test system: SF-539 CNS
OVCAR-3 ovarian = test system: OVCAR-3 ovarian
SN12C renal = test system: SN12C renal
DMS 114 small cell lung = test system: DMS 114 small cell lung
RXF 393 renal = test system: RXF 393 renal
UACC-62 melanoma = test system: UACC-62 melanoma
NCI-H23 lung = test system: NCI-H23 lung
SR leukemia = test system: SR leukemia
OVCAR-4 ovarian = test system: OVCAR-4 ovarian
786-0 renal = test system: 786-0 renal
M19-MEL melanoma = test system: M19-MEL melanoma
DLD-1 colon = test system: DLD-1 colon
NCI-H460 lung = test system: NCI-H460 lung
LXFL 529 NSCLC = test system: LXFL 529 NSCLC
KM12 colon = test system: KM12 colon
RPMI-8226 leukemia = test system: RPMI-8226 leukemia
SW-620 colon = test system: SW-620 colon
SNB-75 CNS = test system: SNB-75 CNS
HCC-2998 colon = test system: HCC-2998 colon
DMS 273 small cell lung = test system: DMS 273 small cell lung
XF 498 CNS = test system: XF 498 CNS
SF-268 CNS = test system: SF-268 CNS
HOP-62 NSCLC = test system: HOP-62 NSCLC
SF-295 CNS = test system: SF-295 CNS
HCT-116 colon = test system: HCT-116 colon
EKVX NSCLC = test system: EKVX NSCLC
HT29 colon = test system: HT29 colon
OVCAR-5 ovarian = test system: OVCAR-5 ovarian
M14 melanoma = test system: M14 melanoma
UACC-257 melanoma = test system: UACC-257 melanoma
ACHN renal = test system: ACHN renal
OVCAR-8 ovarian = test system: OVCAR-8 ovarian
TK-10 renal = test system: TK-10 renal
NCI-H522 lung = test system: NCI-H522 lung
SNB-78 CNS = test system: SNB-78 CNS
A549 NSCLC = test system: A549 NSCLC
A498 renal = test system: A498 renal
K-562 leukemia = test system: K-562 leukemia
LOX IMVI melanoma = test system: LOX IMVI melanoma
UO-31 renal = test system: UO-31 renal
CAKI-1 renal = test system: CAKI-1 renal
HL-60(TB) leukemia = test system: HL-60(TB) leukemia
HOP-18 NSCLC = test system: HOP-18 NSCLC
COLO 205 colon = test system: COLO 205 colon
HOP-92 NSCLC = test system: HOP-92 NSCLC
NCI-H226 lung = test system: NCI-H226 lung
KM20L2 colon = test system: KM20L2 colon
SK-MEL-28 melanoma = test system: SK-MEL-28 melanoma
RXF-631 renal = test system: RXF-631 renal
HCT-15 colon = test system: HCT-15 colon
SK-MEL-5 melanoma = test system: SK-MEL-5 melanoma
SK-MEL-2 melanoma = test system: SK-MEL-2 melanoma
MOLT-4 leukemia = test system: MOLT-4 leukemia

Measured: TGI

O=C1CC(CC(=O)C2CCCCC2=O)C(=O)N1 (stereo not given)
not listed: RXF-631 renal | HCT-15 colon | SK-MEL-5 melanoma | SK-MEL-2 melanoma | MOLT-4 leukemia
> 100 µM: all other assays above

O=C(NCCCOC(=O)CCCCCCCCC(=O)OCCCNC(=O)NC(=O)c1c[nH]c(=O)[nH]c1=O)NC(=O)c1c[nH]c(=O)[nH]c1=O
not listed: DMS 114 small cell lung | RXF 393 renal | SR leukemia | SNB-75 CNS | HT29 colon | NCI-H522 lung | UO-31 renal | NCI-H226 lung
> 100 µM: all other assays above
